Holding throughout (format): cell-based
One experiment relates to Trichophyton rubrum. The experiment can be described thus: In vitro antifungal drug sensitivity test (microdilution method), Trichophyton rubrum. The following applies: for MIC: read-out: Antifungal activity MIC. An excerpt:
(§1) A microdilution method (Pierce C G, Uppuluri P, Tristan A R, et al. A simple and reproducible 96-well plate-based method for the formation of fungal biofilms and its application to antifungal susceptibility testing [J]. Nat Protoc, 2008, 3 (9): 1494-1500.) is adopted, and its experimental procedure refers to the M38-A2 and M27-A2 solutions (Espinel-Ingroff A, Fothergill A, Fuller J, et al. Wild-type MIC distributions and epidemiological cutoff values for caspofungin and Aspergillus Spp. for the CLSI broth microdilution method (M38-A2 document) [J]. Antimicrobl Agents Chemother, 2011, 55 (6): 2855-2859.). Three tested strains (Candida albicans, Trichophyton mentaqrophytes and Trichophyton rubrum) are used as indicator bacteria to carry out in vitro antifungal drug sensitivity screening experiment for the compounds AAP-1-AAP6.
(§2) Control drugs: ketoconazole (purchased from Shanghai Boliang Biotechnology Co., Ltd.), Aaptamine (same as Embodiment 2).

The test system of experiment [1] is human lung cancer stem cell PC9-Oct4. The experiment can be described thus: In vitro anti-lung cancer stem cell test (CCK-8 cell viability), PC9-Oct4. The following applies: read-out: Half effective inhibitory concentration IC50 against tumor cells. How it is done: (§3) In vitro anti-lung cancer stem cell test is carried out on the compounds AAP-1-6 of the present invention, and the lung cancer stem cell lines used are as follows:
(§4) Human lung cancer cell PC9 is purchased from ATCC with ATCC number 32727.
(§5) In addition, Oct4-GFP and Nanog-GFP are highly expressed by lentivirus transfection.
(§6) The original cell culture medium for Human lung cancer stem cells PC9-Nanog and PC9-Oct4 is discarded, 3 mL of PBS is added to rinse the cells twice; 500 μL of 0.25% trypsin is then added for digestion for 3 minutes at 37° C.; and 3 mL of a complete medium is added to terminate the digestion. The cells are pipetted gently with a pipette to make a single cell suspension; the single cell suspension is transferred to a 15 mL centrifuge tube and centrifuged at 800 rpm for 4 minutes; the supernatant is discarded, 6 mL of a complete medium is added to the centrifuge tube, and mixed by pipetting; counting is carried out to prepare […] single cell suspension; the suspension is added to a 96-well plate, 90 μL per well, (wells at the outer ring are not added with the suspension), and finally each well has 3000 cells; and the 96-well plate is incubated for 24 hours in a 37° C., 5% CO2 incubator.
(§7) 1 mg of each of the compounds AAP-1, AAP-2, AAP-3, AAP-4, AAP-5, and AAP-6 of the present invention is prepared into a 10 mM stock solution by using DMSO, and stored in a refrigerator with a temperature of 4° C. Thereafter, the stock solution is diluted with a medium to a 10 μM test solution. The final concentration is 10 μM in a 96-well plate, and the test solution is diluted three folds and added to the plate. Finally, the concentrations of the test solutions of the compounds of the present invention added to the plate are 10 μM, 3.3 μM, 1.1 μM, and 0.33 μM, respectively. The 96-well plate added with the compounds is incubated for 72 hours in a 37° C., 5% CO2 incubator. 72 hours later, 10 μL of CCK-8 solution is added to each well. 40 minutes to 60 minutes later, the absorbance at 450 nm, i.e., the OD value, is measured with a microplate reader. Cell viability is calculated after measuring the OD value of each group of cells. Cell viability (%)=(OD value of the treated group−OD value of the blank group)/(OD value of the blank control group−OD value of the blank group)×100%
(§8) The blank control group is not added with the compounds of the present invention, and the other steps are the same.
(§9) Meanwhile, the positive control drugs Cis-platinum (Shanghai Boliang Biotechnology Co., Ltd.) and Aaptamine (Reference: Enrique L. Larghi, Maria L. Bohn, Teodoro S. Kaufman, Aaptamine and related products. Their isolation, chemical syntheses, and biological activity, Tetrahedron 2009, 65 (22), 4257-4282 synthesis) are used as control groups for in vitro anti-tumor activity test, and the treatment method herein is the same as that for the compounds of the present invention.

In experiment [2] the test system is Trichophyton mentaqrophytes. The experiment can be described thus: In vitro antifungal drug sensitivity test (microdilution method), Trichophyton mentaqrophytes. The conditions noted are these: for MIC: Trichophyton, read-out: Antifungal activity MIC.
Text: as §1, §2
In general terms: In broth dilution the organism is exposed to a series of concentrations in liquid medium.

In experiment [3] the test system is human lung cancer stem cell PC9-Nanog. As to the kind of experiment: In vitro anti-lung cancer stem cell test (CCK-8 cell viability), PC9-Nanog. The conditions noted are these: read-out: Half effective inhibitory concentration IC50 against tumor cells. How it is done:
as §3, §4, §5, §6, §7, §8, §9

In a further experiment the test system is Candida albicans. As to the kind of experiment: In vitro antifungal drug sensitivity test (microdilution method), Candida albicans. The following applies: for MIC: read-out: Antifungal activity MIC.
Text: as §1, §2

The mark [4] stands for this setting: Homo sapiens, 72 h, PC9-Oct4 cells, 72 hours incubation, CCK-8.
[5] abbreviates: Trichophyton mentaqrophytes, microdilution.
Where [6] appears, read: Homo sapiens, 72 h, PC9-Nanog cells, 72 hours incubation, CCK-8.
[7] abbreviates: PC9-Oct4 cells, 72 hours incubation, CCK-8.
Where [8] appears, read: PC9-Nanog cells, 72 hours incubation, CCK-8.

Experimental findings from US10799495B2, “Aaptamine alkaloid derivatives and synthesis method and application thereof” (RENJI HOSPITAL, SHANGHAI JIAO TONG UNIVERSITY SCHOOL OF …, priority 2017, dated 2020) are described below.

As usually defined, the MIC is the smallest concentration in the dilution series that meets the test's criterion for growth inhibition.

Structures are written as SMILES. ≈ marks a conversion by molar mass, not a printed value. Read-outs that look alike come from different tables or passages of the source.

`COc1cc2ccnc3c2c(c1OC)NC=C3c1ccccc1` [AAP-1, 8,9-dimethoxy-3-phenyl-1H-benzo[de][1,6]naphthyridine]: the values for the MIC (with Trichophyton rubrum (microdilution); in experiment [2] (setting [5]); in the experiment on Candida albicans (microdilution)) were 12.5 µg/mL (≈ 41.1 µM), 25 µg/mL (≈ 82.1 µM) and > 30 µg/mL, respectively. Besides, the IC50 in experiment [1] (setting [4]) came out at 1.04 ± 0.11 µM; in experiment [3] (setting [6]), 1.24 ± 0.02 µM.

On to `COc1c(OC)c2c3c(nccc3c1-c1ccccc1)C=CN2` [AAP-2, 8,9-dimethoxy-7-phenyl-1H-benzo[de][1,6]naphthyridine], for which the MIC in the experiment on Trichophyton rubrum (microdilution) was 25 µg/mL (≈ 82.1 µM); in experiment [2] (setting [5]), 25 µg/mL (≈ 82.1 µM); with Candida albicans (microdilution) it was > 30 µg/mL. In addition, the figures for the IC50 in experiment [1] (setting [4]) and in experiment [3] (setting [6]) were 7.22 ± 0.04 µM and 6.82 ± 0.16 µM, respectively.

For `COc1c(OC)c2c3c(nccc3c1-c1cccc(C(C)C)c1)C(c1cccc(C(C)C)c1)=CN2` [AAP-6, 3,7-bis(3-isopropyphenyl)-8,9dimethoxy-1H-benzo[de][1,6] naphthyridine], the “Antifungal activity MIC” value in the experiment with Trichophyton rubrum (microdilution) was >30 µg/mL; in experiment [2] (setting [5]) it was >30 µg/mL; with Candida albicans (microdilution) it was 25 µg/mL. Besides, the IC50 in experiment [1] (setting [7]) amounted to 3.82 ± 0.15 µM; in experiment [3] (setting [8]) it was 4.82 ± 0.12 µM.

Take `COc1cc2ccnc3c2c(c1OC)NC=C3` [Aaptamine]: the “Antifungal activity MIC” value in the experiment on Trichophyton rubrum (microdilution) was >30 µg/mL. In addition, the MIC (in the experiment on Trichophyton rubrum; in experiment [2]; with Candida albicans) was > 30 µg/mL throughout. The IC50 amounted to 8.44 ± 0.1 µM in experiment [1] (Homo sapiens, 72 h) and 10.1 ± 0.17 µM in experiment [3] (Homo sapiens, 72 h).

With `N.N.[Cl][Pt][Cl]` [Cis-platinum, reference compound], the IC50 in experiment [1] (setting [7]) worked out at 3.24 ± 0.05 µM; in experiment [3] (setting [8]), 4.53 ± 0.03 µM.

Turning to `CC(=O)N1CCN(c2ccc(OCC3COC(Cn4ccnc4)(c4ccc(Cl)cc4Cl)O3)cc2)CC1` (centres unmarked) [Ketoconazole, ketoconazole, reference compound], the MIC (in the experiment on Trichophyton rubrum (microdilution); in experiment [2] (setting [5]); in the experiment with Candida albicans (microdilution)) was 8 µg/mL (≈ 15.1 µM) in each case.
